Test results taken from US7576064B2, “Pyrazole derivative, drug composition containing the same and production intermediate therefor” (Kissei Pharmaceutical Co., Ltd., priority 2003, dated 2009).

Columns and labels:
human SMINT [1] = target: T1, human SMINT (Homo sapiens, UniProt Q2M3M2); assay: Confirmatory test for substrate specificity of human SMINT (inhibition of α-MG uptake by natural sugars); format: cell-based; conditions: natural sugars added to Uptake Buffer with 1 mM α-MG; COS-7 cells transiently expressing human SMINT
T1 construct: expressed in transfected cells; host or cells: COS-7 cells (RIKEN CELL BANK RCB0539), transient lipofection
T1 sequence (Q2M3M2 1-681): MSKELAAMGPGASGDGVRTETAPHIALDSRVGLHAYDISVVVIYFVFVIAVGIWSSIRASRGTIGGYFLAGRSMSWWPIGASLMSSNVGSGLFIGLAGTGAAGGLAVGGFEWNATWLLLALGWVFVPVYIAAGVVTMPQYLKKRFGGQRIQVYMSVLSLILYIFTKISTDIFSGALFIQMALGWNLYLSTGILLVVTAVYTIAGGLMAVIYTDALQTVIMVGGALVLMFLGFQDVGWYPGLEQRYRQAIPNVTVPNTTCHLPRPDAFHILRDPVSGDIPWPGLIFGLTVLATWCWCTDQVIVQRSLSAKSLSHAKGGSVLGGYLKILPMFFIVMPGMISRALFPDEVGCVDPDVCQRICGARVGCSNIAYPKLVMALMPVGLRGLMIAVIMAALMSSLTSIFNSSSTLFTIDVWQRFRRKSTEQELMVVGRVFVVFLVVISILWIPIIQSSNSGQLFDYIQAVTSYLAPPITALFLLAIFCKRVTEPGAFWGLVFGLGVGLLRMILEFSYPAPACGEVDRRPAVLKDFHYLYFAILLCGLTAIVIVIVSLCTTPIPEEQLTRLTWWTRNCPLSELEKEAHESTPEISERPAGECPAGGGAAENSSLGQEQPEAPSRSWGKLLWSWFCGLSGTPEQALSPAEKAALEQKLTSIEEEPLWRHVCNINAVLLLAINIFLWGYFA
From the text: FIG. 2 is a graph showing substrate specificity of human SMINT. The vertical axis in dicates methyl-α-D-glucopyranoside (α-MG) uptake activity (%), and the horizontal axis indicates concentration (mol/L).
1) Preparation of Cells Transiently Expressing Human SMINT
Human SMINT-carrying expression plasmid SMINT/pME18S-FL (denotation of bacteria: Escherichia coli/SMINT2010324), which was deposited with Patent Microorganisms Depositary at the National Institute of Technology and Evaluation under an accession number: FERMP-18756 on Mar. 12, 2002, was transfected to COS-7 cells (RIKEN CELL BANK RCB0539) by lipofection method. LIPOFECTAMINE PLUS reagent (Invitrogen) was used as the lipofection reagent. A day before the lipofection, COS-7 cells were suspended in D-MEM medium (Invitrogen) at 6×10^5 cells per 1 mL, and 50 μL of the suspended cells was dispensed into each well of 96-well plate. The lipofection was performed by the following methods. For each well, 0.1 μg of the plasmid was diluted with 10 μL of D-MEM, added 0.5 μL of PLUS reagent, mixed gently, and kept stand for 15 minutes to prepare Plasmid Dilute Solution. For each well, 0.5 μL of LIPOFECTAMINE reagent was diluted with 10 μL of D-MEM to prepare LIPOFECTAMINE Dilute Solution. […]
To Uptake Buffer consisting of 140 mM sodium chloride, 2 mM potassium chloride, 1 mM calcium chloride, 1 mM magnesium chloride, 10 mM 2-[2-(2-hydroxyethyl)-1-piperazinyl]-ethanesulfonic acid, and 5 mM tris(hydroxymethyl)aminomethane (pH 7.4), was added methyl-α-D-glucopyranoside (α-MG) composed of its non-radiolabeled form (Sigma) and ^14C-labeled form (Amersham Biosciences) at 1 mM as the final concentration. […] To the cell lysates were added 150 μL per well of MicroScint 40 (Packard), mixed well, and the radio activity was measured in a micro scintillation counter TOPCOUNT (Packard). α-MG uptake by the cells treated with each concentration of test compounds was calculated as relative activity to control group, which is set as 100% uptake after deducting the basal uptake. […]

human SMINT [2] = target: T1, human SMINT; assay: Confirmatory test for inhibitory activity on human SMINT (methyl-α-D-glucopyranoside uptake in transiently expressing COS-7 cells); format: cell-based; conditions: COS-7 cells transiently expressing human SMINT; 1 mM α-MG; 1 hour, 37° C.; read-out: IC50 value (concentration inhibiting α-MG uptake by 50%)
From the text: Human SMINT-carrying expression plasmid SMINT/pME18S-FL (denotation of bacteria: Escherichia coli/SMINT2010324), which was deposited with Patent Microorganisms Depositary at the National Institute of Technology and Evaluation under an accession number: FERMP-18756 on Mar. 12, 2002, was transfected to COS-7 cells (RIKEN CELL BANK RCB0539) by lipofection method. LIPOFECTAMINE PLUS reagent (Invitrogen) was used as the lipofection reagent. A day before the lipofection, COS-7 cells were suspended in D-MEM medium (Invitrogen) at 6×10^5 cells per 1 mL, and 50 μL of the suspended cells was dispensed into each well of 96-well plate. The lipofection was performed by the following methods. For each well, 0.1 μg of the plasmid was diluted with 10 μL of D-MEM, added 0.5 μL of PLUS reagent, mixed gently, and kept stand for 15 minutes to prepare Plasmid Dilute Solution. For each well, 0.5 μL of LIPOFECTAMINE reagent was diluted with 10 μL of D-MEM to prepare LIPOFECTAMINE Dilute Solution. The Plasmid Dilute Solution was mixed with an equal volume of the LIPOFECTAMINE Dilute Solution, kept stand for 15 minutes. After that, 20 μL of the mixture was added to each well of cell culture medium, and the cells were cultured for 5 hours at 37° C. under 5% CO2. Then 100 μL of D-MEM containing 16.7% fetal bovine serum (Sanko Jun-yaku) was added to each well. […]

| recognition as substrate by SMINT (FIG. 2) (human SMINT [1]) | IC50 (human SMINT [2]) | Structure (SMILES) |
| --- | --- | --- |
| not | – | O=C[C@H](O)[C@@H](O)[C@@H](O)[C@H](O)CO [galactose] |
| – | 890 nM | COc1ccc(Cc2c(O[C@@H]3O[C@H](CO)[C@@H](O)[C@H](O)[C@H]3O)nn(C(C)C)c2-n2cccn2)c(OC)c1 [Example 4, 1-Isopropyl-4-(2,4-dimethoxyphenylmethyl)-5-(1H-pyrazol-1-yl)-3-(β-D-glucopyranosyloxy)-1H-pyrazole] |
| recognizes | – | O=C(CO)[C@@H](O)[C@H](O)[C@H](O)CO [fructose] |

More lines, now with the values behind:

| Structure (SMILES) | recognition as substrate by SMINT (FIG. 2) (human SMINT [1]) | IC50 (human SMINT [2]) |
| --- | --- | --- |
| COc1ccc(Cc2c(O[C@@H]3O[C@H](CO)[C@@H](O)[C@H](O)[C@H]3O)nn(C(C)C)c2Oc2ccccc2)cc1 [Example 1, 1-Isopropyl-4-(4-methoxybenzyl)-5-phenoxy-3-(β-D-glucopyranosyloxy)-1H-pyrazole] | – | 700 nM |
| OC[C@H]1OC[C@H](O)[C@@H](O)[C@@H]1O [1,5-anhydroglucitol] | recognizes | – |
